From patent publication US20130095059A1, “INHALED NO DONOR KMUPS DERIVATIVE PREVENTING ALLERGIC PULMONARY VASCULAR AND BRONCHIAL INFLAMMATION VIA SUPPRESSED CYTOKINES, INOS AND INFLAMMATORY CELL COUNTS IN ASTHMA MODEL” (priority 2007, published 2013)

Columns and labels:
pulmonary artery rings = test: Isometric force of 5-HT-constricted pulmonary artery rings; set-up: species or system Wistar rats
Experimental: Wistar rats were euthanized with an overdose of sodium pentobarbital (60 mg/kg, i.p.) before open-chest surgery. During surgery, a thoracic retractor was used to help isolate the pulmonary artery. […] The pulmonary artery ring preparations were stretched to a basal tension of 1 g and allowed to equilibrate for 60-90 min. After equilibration, pulmonary artery rings were constricted with 5-HT (10 μM) to prime the tissues and check the functionality of the endothelium (at least 80% relaxation in response to acetylcholine 1 μM). […] The effect of KMUP-1 on NOS and 5-HT was also studied in vessels pre-incubated with the NOS inhibitor L-NAME (100 μM) 20 min before 5-HT administration. The percentage of relaxation was estimated using the following equation: relaxation (%)=(maximal contraction−relaxation level)/(maximal contraction-basal level)×100. Data was obtained from serotonin-induced maximal contractile responses in pulmonary artery.

5-HTT = test: 5-HT-induced 5-HTT expression in PASMCs (Western blotting); format: cell-based, Wistar rats
Experimental: PASMCs were stimulated with 5-HT or not, as indicated. Cells were treated with KMUP-1 for 24 h before 5-HT stimulation. Whole lysates were collected and resolved by SDS-PAGE as previously described. Primary antibodies were anti-β-actin at: 1:10,000 dilution and anti-RhoA, anti-ROCK, antiphospho-ERK1/2, anti-phospho-AKT, anti-ERK1/2, anti-AKT, anti-5HTT, anti-5-HT2B and anti-eNOS at 1:1000. All blots were incubated with antibodies at 4° C. overnight. After being washed, the appropriate secondary antibodies were added at a dilution of 1:1000 for 1 h at room temperature. After extensive washing, blots were developed with a Super Signal enhanced chemiluminescence kit (Biorad, CA, USA) and visualized on Kodak AR film.
The expression of RhoA/ROCK and phosphorylation of ERK1/2 and AKT kinase in PASMCs were assessed by incubating the PASMCs with 5-HT (10 μM) for 15 min (peak time for RhoA/ROCK, ERK1/2 and AKT phosphorylation) and 5-HTT for 10 min (peak time for 5-HTT) after KMUP-1 (1-100 μM) was added to the culture of PASMCs for 24 h.

MMP-9 = test: Ovalbumine model, MMP-9 expression, zymography and immunostaining; format: in vivo, BALB/c mice
Experimental: (§1) In this long-term experiment, 6-8 week old BALB/c female mice were sensitized on days 1 and 8 by intra-peritoneal injection (i.p.) of ovalbumine (10 μg) (Sigma-Aldrich, Schnelldorf, Germany) adsorbed to 2 mg aluminum hydroxide (AlumInject; Perbio, Erembodegem, Belgium). Mice were divided into three groups. In Group 1, a control group was only exposed to saline nebulization by aerosol. The other 2 groups were subjected to ovalbumine (1%) nebulization. Before each challenge with ovalbumine, mice were either exposed to saline nebulization (Group 2) or KMUP-1 nebulization (5 mM) for 30 min by aerosol (Group 3).
The gelatinolytic activity of MMP-9 was measured by gelatin zymography as described previously (Cataldo D D, et al., 2002). Briefly, BALF (10 μl) was subjected to electrophoresis in 10% polyacrylamide gel containing gelatin (1 mg/ml). The gel was washed in 2.5% Triton X-100 to permit re-naturation of gelatinases and stained with Coomassie blue after overnight incubation. Destaining visualized clear zones of lysis against a blue background indicated the gelatinase activity (Hibbs, M S, et al., 1985).
(§2) The lung tissues were homogenized, washed with PBS and incubated in lysis buffer in addition to a protease inhibitor cocktail (Sigma, St. Louis, Mo.) to obtain extracts of lung proteins. A Western blot analysis was performed as described previously (Wu B N, et al., 2006). The samples were loaded to 10% SDS-PAGE gels and were separated at 120 V for 90 min. The blots were incubated with anti-eNOS antibody diluted at a ratio of 1:500, anti-sGCα1 antibody diluted at a ratio of 1:2000, anti-PKG antibody diluted at a ratio of 1:500, anti-VCAM-1 antibody diluted at a ratio of 1:500, anti-ICAM-1 antibody diluted at a ratio of 1:500, and anti-MMP-9 antibody diluted at a ratio of 1:600 overnight at 4° C. The membranes were stripped and re-blotted with anti-actin antibody (Sigma, St. Louis, Mo.) to verify the equal loading of protein in each lane.
Immunohistochemical analysis of eNOS enhancement by KMUP-1 was performed as follows. The lungs were perfused with saline followed by 10% formalin and then placed in 10% formalin for paraffin embedding. The lung tissues were cut into […] sections onto slides, dewaxed in 100% xylene, and then re-hydrated in graded alcohol solutions. Throughout the procedures, slides were washed as appropriate in PBS. Antigen retrieval was performed by microwave treatment for eNOS immunostaining. Sections were treated with 3% H2O2 (10 min) to inhibit endogenous peroxidases and incubated with normal serum (60 min) to reduce nonspecific binding of secondary antibodies. Sections were then incubated at 4° C. overnight with eNOS antibodies. After washing off unbounded primary antibodies, sections were incubated with secondary biotinylated antibodies against mouse or rabbit (DAKO Co., Japan) (60 min), followed by incubation in avidin/biotin/horseradish peroxidase complex (DAKO Co., Japan) (30 min) Subsequently, peroxidase activity was visualized by incubation (3 min) with 0.05% 3,3′-diaminobenzidine (DAKO Co., Japan), which gives a brown reaction product. The reaction was stopped by washing with water. The slides were counterstained with hematoxylin. For immunostaining of MMP-9 in lung tissue, the de-paraffinized 3-5 μm sections of lung tissue was performed as above eNOS, but using MMP-9 antibody.

sGCα1 = test: Ovalbumine model, sGCα1 expression; format: in vivo, BALB/c mice; conditions: 28-day experiment; nebulization
Experimental: as §1
as §2, with “The membranes were stripped and re-blotted with anti-actin antibody (Sigma, St. Louis, Mo.) to verify the equal loading of protein in each lane.” left out

eNOS = test: Ovalbumine model, eNOS immunostaining in lung sections; set-up: species or system BALB/c mice; conditions: mouse, in vivo
Experimental: as §1
Immunohistochemical analysis of eNOS enhancement by KMUP-1 was performed as follows. The lungs were perfused with saline followed by 10% formalin and then placed in 10% formalin for paraffin embedding. The lung tissues were cut into […] sections onto slides, dewaxed in 100% xylene, and then re-hydrated in graded alcohol solutions. Throughout the procedures, slides were washed as appropriate in PBS. Antigen retrieval was performed by microwave treatment for eNOS immunostaining. Sections were treated with 3% H2O2 (10 min) to inhibit endogenous peroxidases and incubated with normal serum (60 min) to reduce nonspecific binding of secondary antibodies. Sections were then incubated at 4° C. overnight with eNOS antibodies. […]

Cn1c(=O)c2c(ncn2CCN2CCN(c3ccccc3Cl)CC2)n(C)c1=O [KMUP-1, 7-[2-[4-(2-chlorophenyl)piperazinyl]ethyl]-1,3-dimethylxanthine]
5-HT (10 μM) contractile response in pulmonary artery (pulmonary artery rings; 0.1-100 μM): inhibited | maximum response of pulmonary artery to 5-HT (pulmonary artery rings; 10-100 μM, in the presence of L-NAME (100 μM)): reduced the maximum response | 5-HT-induced expression of 5-HTT (5-HTT; 10 μM): inhibited | 5-HT-induced expression of 5-HTT (5-HTT; 1-100 μM, 24 h, then 5-HT 10 min): dose-dependently inhibited | increased MMP-9 expression by ovalbumine sensitization (MMP-9; 28-day experiment, nebulization): significantly reduced | zymography of MMP-9 (MMP-9; BALF, versus ovalbumine): decreased | MMP-9 positive cells (immunostaining) (MMP-9; ovalbumine-sensitized and -challenged mice): hardly detected | decreased sGCα1 expression by ovalbumine sensitization (sGCα1): significantly reduced | ovalbumine-decreased vascular eNOS-immunostaining in lung sections (eNOS): prevented this decrease
